Where two headings read alike, the source gives them in different places. Starred links: 1 amine or outer side, 2 acyl side, 3 side chain; linkers in the order of their positions; H or OH if unused. Non-standard residues stand in square brackets, D forms with d. Residues, ends and D or L forms follow the SMILES beside them. *: point of attachment. d(aThr) = C[C@@H](O)[C@@H](N)C(=O)O; cisHyp = O=C(O)[C@@H]1C[C@H](O)CN1; Hydrocinnamoyl = O=C(CCc1ccccc1)*; d(hSer) = N[C@H](CCO)C(=O)O; ΔPro = O=C(O)[C@@H]1C=CCN1; Isovaleryl = CC(C)CC(=O)*; Pra = C#CC[C@H](N)C(=O)O; dDap = NC[C@@H](N)C(=O)O; Aze = O=C(O)[C@@H]1CCN1; Cbz = O=C(OCc1ccccc1)*; CO = O=C([*:1])[*:2]; NHBn = c1ccc(CN*)cc1; Sar = CNCC(=O)O; Moc = COC(=O)*
Tests used:
Human rt-PA (Activase) = target: T1, Human rt-PA (Activase) (Homo sapiens, UniProt P00750); assay: Recombinant tissue plasminogen activator (rt-PA) chromogenic assay; format: biochemical; settings: 30 minute preincubation, HBSA buffer; read-out: tPA IC50
T1 construct: purchased Genentech Inc
T1 sequence (P00750 36-562): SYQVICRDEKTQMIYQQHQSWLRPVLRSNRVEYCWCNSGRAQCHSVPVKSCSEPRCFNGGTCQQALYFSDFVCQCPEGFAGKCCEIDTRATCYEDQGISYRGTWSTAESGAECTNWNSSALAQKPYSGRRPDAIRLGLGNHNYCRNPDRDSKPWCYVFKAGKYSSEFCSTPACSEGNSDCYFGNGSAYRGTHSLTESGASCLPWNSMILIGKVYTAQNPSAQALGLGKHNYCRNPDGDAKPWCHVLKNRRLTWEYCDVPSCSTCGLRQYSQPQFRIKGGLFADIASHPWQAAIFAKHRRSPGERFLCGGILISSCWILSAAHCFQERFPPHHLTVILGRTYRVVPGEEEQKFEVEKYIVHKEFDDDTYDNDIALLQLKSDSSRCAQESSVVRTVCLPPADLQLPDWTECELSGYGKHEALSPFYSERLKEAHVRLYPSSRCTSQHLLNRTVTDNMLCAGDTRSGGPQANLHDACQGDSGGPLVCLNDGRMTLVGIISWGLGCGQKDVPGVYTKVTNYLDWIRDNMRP
Procedure: rt-PA catalytic activity was determined using the substrate, Pefachrome t-PA (CH3SO2-D-hexahydrotyrosine-glycyl-L-arginine-p-nitroaniline, obtained from Pentap harm Ltd.). The substrate was made up in deionized water followed by dilution in HBSA prior to the assay in which the final concentration was 500 micromolar (about 3-times Km). Human rt-PA (Activase®) was obtained from Genentech Inc. The enzyme was reconstituted in deionized water and diluted into HBSA prior to the assay in which the final concentration was 1.0 nM.

human plasmin = target: T2, human plasmin (Homo sapiens, UniProt P00747); assay: Plasmin chromogenic substrate (S-2366) assay; format: biochemical; settings: 30 minute preincubation, HBSA buffer
T2 construct: purchased Enzyme Research Laboratories, Inc
T2 sequence (P00747 581-810 limits assumed): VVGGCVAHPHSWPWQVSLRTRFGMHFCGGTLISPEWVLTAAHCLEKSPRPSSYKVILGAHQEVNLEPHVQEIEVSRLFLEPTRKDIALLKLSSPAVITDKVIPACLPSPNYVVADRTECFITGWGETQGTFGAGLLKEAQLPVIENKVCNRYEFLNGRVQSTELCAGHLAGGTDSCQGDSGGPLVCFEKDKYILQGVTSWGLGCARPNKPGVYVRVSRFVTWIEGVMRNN
T2 sequence (P00747 97-580 partner limits assumed): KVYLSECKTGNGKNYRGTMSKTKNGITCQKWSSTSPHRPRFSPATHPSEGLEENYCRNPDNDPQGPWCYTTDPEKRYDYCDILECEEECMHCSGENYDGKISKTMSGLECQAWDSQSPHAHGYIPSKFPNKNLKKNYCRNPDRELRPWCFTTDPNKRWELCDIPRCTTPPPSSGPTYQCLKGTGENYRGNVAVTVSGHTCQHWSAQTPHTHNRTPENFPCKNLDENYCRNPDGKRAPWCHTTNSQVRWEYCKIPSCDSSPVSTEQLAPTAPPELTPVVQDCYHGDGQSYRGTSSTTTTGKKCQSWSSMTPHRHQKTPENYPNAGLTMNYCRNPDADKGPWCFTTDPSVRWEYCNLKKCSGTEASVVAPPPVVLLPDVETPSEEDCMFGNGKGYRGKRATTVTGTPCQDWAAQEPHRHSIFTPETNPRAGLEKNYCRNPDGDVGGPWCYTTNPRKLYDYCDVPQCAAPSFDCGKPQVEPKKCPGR
Procedure: The substrate was made up in deionized water followed by dilution in HBSA prior to the assay in which the final concentration was 300 micromolar (about 2.5-times Km). Purified human plasmin was obtained from Enzyme Research Laboratories, Inc. The enzyme was diluted into HBSA prior to assay in which the final concentration was 1.0 nM.

Urokinase (Abbokinase) = Urokinase (Abbokinase) (Homo sapiens, UniProt P00749); assay: Urokinase chromogenic substrate (S-2444) IC50 assay
Procedure: The buffer used for all assays was HBSA (10 mM HEPES, pH 7.5, 150 mM sodium chloride, 0.1% bovine serum albumin).
The initial velocity of chromogenic substrate hydrolysis was measured by the change in absorbance at 405 nm using a Thermo Max® Kinetic Microplate Reader over a 5 minute period in which less than 5% of the added substrate was utilized.
The assay buffer was HBS (10mM HEPES, 150mM sodium chloride pH 7.4) with 0.1% BSA.

[1] = read-out: uPA IC50, 30 minute preincubation, HBSA buffer

| IC50 (Human rt-PA (Activase)) [nM] | IC50 (human plasmin) [nM] | IC50 (Urokinase (Abbokinase)) [nM] | IC50 (Urokinase (Abbokinase); [1]) [nM] | Compound |
| --- | --- | --- | --- | --- |
| 250 to 2500 | 250 to 2500 | < 100 |  | C[C@H](NC(=O)[C@@H](CO)NC(=O)OCc1ccccc1)C(=O)N[C@H](C=O)CCCNC(=N)N [Compound 2, Benzyloxycarbonyl-D-seryl-alanyl-argininal] (Cbz-[dS]-Ala-Arg-aldehyde) |
| > 2500 | 250 to 2500 | < 100 |  | N=C(N)NCCC[C@@H](C=O)NC(=O)[C@@H]1CCCN1C(=O)[C@@H](CO)NC(=O)OCc1ccccc1 [Compound 11, benzyloxycarbonyl-D-seryl-prolyl-argininal] (Cbz-[dS]-Pro-Arg-aldehyde) |
| > 2500 | 250 to 2500 | < 100 |  | N=C(N)NCCC[C@@H](C=O)NC(=O)[C@@H]1CCN1C(=O)[C@@H](CO)NC(=O)OCc1ccccc1 [Compound 12, benzyloxycarbonyl-D-seryl-L-azetidine-2-carbonyl-argininal] (Cbz-[dS]-[Aze]-Arg-aldehyde) |
| > 2500 |  | 250 to 2500 |  | CN(CC(=O)N[C@H](C=O)CCCNC(=N)N)C(=O)[C@@H](CO)NC(=O)OCc1ccccc1 [Compound 18, benzyloxycarbonyl-D-seryl-sarcosyl-argininal] (Cbz-[dS]-[Sar]-Arg-aldehyde) |
| > 2500 | 250 to 2500 | < 100 |  | C[C@H](NC(=O)[C@H](NC(=O)OCc1ccccc1)[C@@H](C)O)C(=O)N[C@H](C=O)CCCNC(=N)N [Compound 19, benzyloxycarbonyl-D-allothreonyl-alanyl-argininal] (Cbz-[d(aThr)]-Ala-Arg-aldehyde) |
| > 2500 |  | 100 to 250 |  | C[C@H](NC(=O)[C@@H](NC(=O)OCc1ccccc1)[C@@H](C)O)C(=O)N[C@H](C=O)CCCNC(=N)N [Compound 20, benzyloxycarbonyl-threonyl-alanyl-argininal] (Cbz-Thr-Ala-Arg-aldehyde) |
| > 2500 |  | 250 to 2500 |  | C[C@H](NC(=O)[C@H](NC(=O)OCc1ccccc1)[C@H](C)O)C(=O)N[C@H](C=O)CCCNC(=N)N [Compound 22, benzyloxycarbonyl-D-threonyl-alanyl-argininal] (Cbz-[dT]-Ala-Arg-aldehyde) |
| > 2500 |  | 250 to 2500 |  | C[C@H](NC(=O)[C@H](CO)NC(=O)OCc1ccccc1)C(=O)N[C@H](C=O)CCCNC(=N)N [Compound 23, benzyloxycarbonyl-seryl-alanyl-argininal] (Cbz-Ser-Ala-Arg-aldehyde) |
| > 2500 |  | 100 to 250 |  | C[C@H](O)[C@@H](NC(=O)OCc1ccccc1)C(=O)N1CCC[C@H]1C(=O)N[C@H](C=O)CCCNC(=N)N [Compound 26, benzyloxycarbonyl-D-threonyl-prolyl-argininal] (Cbz-[dT]-Pro-Arg-aldehyde) |
| > 2500 | < 100 | 100 to 250 |  | N=C(N)NCCC[C@@H](C=O)NC(=O)[C@@H]1CCCN1C(=O)[C@@H](CCO)NC(=O)OCc1ccccc1 [Compound 27, benzyloxycarbonyl-D-homoseryl-prolyl-argininal] (Cbz-[d(hSer)]-Pro-Arg-aldehyde) |
| > 2500 | 250 to 2500 |  | < 100 | C[C@H](NC(=O)[C@@H](CO)NS(=O)(=O)c1ccccc1)C(=O)N[C@H](C=O)CCCN=C(N)N [Compound 28, Benzenesufonyl-D-Ser-L-Ala-L-Arg-al] |
| > 2500 | 250 to 2500 |  | < 100 | C[C@H](NC(=O)[C@@H](CO)NS(=O)(=O)Cc1ccccc1)C(=O)N[C@H](C=O)CCCN=C(N)N [Compound 29, Benzylsulfonyl-D-Ser-Ala-Arg-al] |
| > 2500 | 250 to 2500 |  | < 100 | C[C@H](NC(=O)[C@@H](CO)NCCCc1ccccc1)C(=O)N[C@H](C=O)CCCNC(=N)N [Compound 32, N-α-(3-Phenylpropyl)-D-seryl-alanyl-argininal] |
| > 2500 | > 2500 | 250 to 2500 |  | C[C@H](NC(=O)[C@@H](CO)NC(=O)CCC1CCCCC1)C(=O)N[C@H](C=O)CCCNC(=N)N [Compound 35, 3-cyclohexylpropionyl-D-seryl-alanyl-argininal] |
| > 2500 | 250 to 2500 | < 100 |  | C[C@H](NC(=O)[C@@H](CO)NC(=O)OCC1CCCCC1)C(=O)N[C@H](C=O)CCCNC(=N)N [Compound 36, cyclohexylmethyloxycarbonyl-D-seryl-alanyl-argininal] |
| > 2500 | > 2500 | 100 to 250 |  | C[C@H](NC(=O)[C@@H](CO)NC(=O)NCC1CCCCC1)C(=O)N[C@H](C=O)CCCNC(=N)N [Compound 37, cyclohexylmethylazacarbonyl-D-seryl-alanyl-argininal] |
| > 2500 | > 2500 | 100 to 250 |  | C[C@H](NC(=O)[C@@H](CO)NC(=O)NCc1ccccc1)C(=O)N[C@H](C=O)CCCNC(=N)N [Compound 38, benzylazacarbonyl-D-seryl-alanyl-argininal] ({NHBn-CO}-[dS]-Ala-Arg-aldehyde) |
| > 2500 | > 2500 | 250 to 2500 |  | CC(C)CC(=O)N[C@H](CO)C(=O)N[C@@H](C)C(=O)N[C@H](C=O)CCCNC(=N)N [Compound 39, isovaleryl-D-seryl-alanyl-argininal] (Isovaleryl-[dS]-Ala-Arg-aldehyde) |
| > 2500 | > 2500 | < 100 |  | CC(C)OC(=O)N[C@H](CO)C(=O)N[C@@H](C)C(=O)N[C@H](C=O)CCCNC(=N)N [Compound 40, isopropyloxycarbonyl-D-seryl-alanyl-argininal] |
| > 2500 | 250 to 2500 | 250 to 2500 |  | C[C@H](NC(=O)[C@@H](CNC(=O)CCc1ccccc1)NC(=O)OCc1ccccc1)C(=O)N[C@H](C=O)CCCNC(=N)N [Compound 41, N-α-benzyloxycarbonyl-N-β-2-phenylethylcarbonyl-D-2,3-diaminopropionyl-alanyl-argininal] (Cbz-[dDap](Hydrocinnamoyl)-Ala-Arg-aldehyde) |
| > 2500 | 100 to 250 | 100 to 250 |  | C[C@H](NC(=O)[C@@H](CNC(=O)OCc1ccccc1)NC(=O)OCc1ccccc1)C(=O)N[C@H](C=O)CCCNC(=N)N [Compound 42, N-α-N-β-dibenzyloxycarbonyl-D-2,3-diaminopropionyl-alanyl-argininal] (Cbz-[dDap](Cbz)-Ala-Arg-aldehyde) |
| > 2500 | 250 to 2500 | 250 to 2500 |  | COC(=O)NC[C@@H](NC(=O)OCc1ccccc1)C(=O)N[C@@H](C)C(=O)N[C@H](C=O)CCCNC(=N)N [Compound 43, N-α-benzyloxycarbonyl-N-β-methyloxycarbonyl-D-2,3-diaminopropionyl-alanyl-argininal] (Cbz-[dDap](Moc)-Ala-Arg-aldehyde) |
| > 2500 | 250 to 2500 | 100 to 250 |  | N=C(N)NCCC[C@@H](C=O)NC(=O)[C@H](CO)NC(=O)[C@@H](CO)NC(=O)OCc1ccccc1 [Compound 45, benzyloxycarbonyl-D-seryl-L-seryl-argininal] (Cbz-[dS]-Ser-Arg-aldehyde) |
| > 2500 | 250 to 2500 | < 100 |  | C[C@H](NC(=O)[C@@H](CO)NS(=O)(=O)CCc1ccccc1)C(=O)N[C@H](C=O)CCCNC(=N)N [Compound 47, 2-phenylethylsulfonyl-D-seryl-alanyl-argininal] |
| > 2500 | 250 to 2500 | < 100 |  | C[C@H](NC(=O)[C@@H](CO)NS(=O)(=O)CCCc1ccccc1)C(=O)N[C@H](C=O)CCCNC(=N)N [Compound 48, 3-phenylpropylsulfonyl-D-seryl-alanyl-argininal] |
| > 2500 | 250 to 2500 | < 100 |  | N=C(N)NCCC[C@@H](C=O)NC(=O)[C@@H]1C[C@H](O)CN1C(=O)[C@@H](CO)NC(=O)OCc1ccccc1 [Compound 49, benzyloxycarbonyl-D-seryl-L-cis-4-hydroxyprolyl-argininal] (Cbz-[dS]-[cisHyp]-Arg-aldehyde) |
| > 2500 | 100 to 250 | < 100 |  | N=C(N)NCCC[C@@H](C=O)NC(=O)[C@@H]1C=CCN1C(=O)[C@@H](CO)NC(=O)OCc1ccccc1 [Compound 50, benzyloxycarbonyl-D-seryl-L-3,4-dehydroprolyl-argininal] (Cbz-[dS]-[ΔPro]-Arg-aldehyde) |
| > 2500 | 250 to 2500 | < 100 |  | C#CC[C@H](NC(=O)[C@@H](CO)NC(=O)OCc1ccccc1)C(=O)N[C@H](C=O)CCCNC(=N)N [Compound 51, benzyloxycarbonyl-D-seryl-L-propargylglycyl-argininal] (Cbz-[dS]-[Pra]-Arg-aldehyde) |

| Compound | IC50 (Human rt-PA (Activase)) [nM] | IC50 (human plasmin) [nM] | IC50 (Urokinase (Abbokinase)) [nM] | IC50 (Urokinase (Abbokinase); [1]) [nM] |
| --- | --- | --- | --- | --- |
| CC(C)COC(=O)N[C@H](CO)C(=O)N[C@@H](C)C(=O)NC(CCCN=C(N)N)C(=O)C(=O)NCCc1ccccc1 (stereo partly drawn) [Compound 30, i-butoxycarbonyl-D-Ser-Ala-Arg-CO-phenethylamide] | > 2500 | 250 to 2500 |  | 100 to 250 |
| N=C(N)NCCCC(C=O)NC(=O)C1CCN1C(=O)C(CO)NS(=O)(=O)c1ccccc1 [Compound 31, benzenesulfonyl-D-seryl-azetidyl-argininal] |  | 250 to 2500 |  | < 100 |
| CC[C@@H](NC(=O)OCc1ccccc1)C(=O)N[C@@H](C)C(=O)NC(C=O)CCCNC(=N)N (stereo partly drawn) [Compound 44] | > 2500 | 250 to 2500 | 250 to 2500 |  |

Reference: patent US6432922B1 (Corvas International, Inc., priority 1998, dated 2002)
